From US4548944A, “Guanidino-heterocyclyl-phenyl-amidines and salts thereof” (Istituto de Angeli S.p.A., priority 1982, dated 1985)

Legend:
histamine H2 -receptors [1] = target: T1, histamine H2 -receptors (Cavia porcellus, UniProt P47747); assay: In vitro inhibition of histamine-induced tachycardia (positive chronotropic effect) in isolated guinea pig atria; conditions: Krebs-Henseleit pH 7.4, 32° C., histamine 10^-6 g/ml, 30 min contact
T1 construct: isolated guinea pig atria suspended in an organ bath; from tissue; host or cells: isolated guinea pig atria
Description: The myocardial preparation, loaded with 1 gm isometric tension, was allowed to stabilize 60 minutes, and myocardial contractions were recorded through an isometric lever connected to a strain-gauge coupler, and the instantaneous rate was monitored with a cardiotachometer and a heat-writing pen recorder. After two control responses to histamine (10^-6 g/ml) the test compound was added to the bath at the desired final concentration and left for 30 minutes before the atria were again challenged with histamine. The chronotropic obtained in the presence of the antagonist was then compared to the control response to histamine, and the percent reduction of the histamine H2 -evoked response was calculated. […] 3, Smooth muscle, Ed. Daniel, E. E. Paton, M., Plenum Press, New York (1975); Ash and Schild, Br. J.Pharmacol. Chemother. 27, 427-439, 1966.

histamine H2 -receptors [2] = target: T2, histamine H2 -receptors (Rattus norvegicus, UniProt P25102); assay: In vivo antisecretory activity on histamine-induced gastric secretion of acid (stomach-perfused rat); conditions: iv, histamine 1 mg/kg/hr, values expressed as base, read-out: ED50, inhibition of histamine-induced gastric secretion
T2 construct: intravenous or intraduodenal administration in stomach-perfused rats; from tissue; host or cells: stomach of the anesthetized living rat (in vivo)
Text: The ability of the test compounds to inhibit histamine-induced gastric secretion of acid was investigated after intravenous or intraduodenal administration in stomach-perfused rats, according to Gosh and Schild, Br. J. Pharmacol. Chemother. 13, 54, (1958).
The preparation of the animals under general anesthesia (urethane, 1 g/kg i.p.) and constant temperature, was achieved by inserting and tying in place polyethyl tubes (PE 50) in the esophagus and in the pyloricantral region. After the stomach was washed to remove residual of foods, continuous perfusion of the stomach was started with saline, 0.5 ml/min. (37° C.), primed by a Jobling peristaltic pump. After 30 minutes of perfusion adaptation, the stomach perfusate was collected in 30 min. samples, and titrated for acid content, expressed as μEq of NaOH 1N. As control acid output became constant, intravenous perfusion of histamine (1 mg/kg/hr) was started and maintained throughout the experimental period. After the acid secretion had reached the steadily higher level, increasing doses of the test compounds were injected intravenously in order to obtain dose-response functions. The ED50 was then calculated by standard procedure.

Swiss mice = assay: Acute toxicity, single oral dose in Swiss mice; format: in vivo; conditions: 500 mg/kg, fasted 18 hours, mortality at 14 days, values expressed as base
Description: The acute toxicity of the particularly preferred compounds of the formula I was approximately determined by oral administration of a single dose to groups of 5 Swiss mice, fasted for 18 hours before the test. The evaluation of the incidence of mortality was considered 14 days after the administration. The results are shown in the following table, in which the values are expressed taking the compound as a base.

H2 -receptor = conditions: in vitro, literature; cited from earlier work
gastric acid secretion = conditions: cited from earlier work; for inhibition of gastric acid secretion relative to cimetidine: in vivo, literature

T2 sequence (P25102 whole entry, the tested form may be a part): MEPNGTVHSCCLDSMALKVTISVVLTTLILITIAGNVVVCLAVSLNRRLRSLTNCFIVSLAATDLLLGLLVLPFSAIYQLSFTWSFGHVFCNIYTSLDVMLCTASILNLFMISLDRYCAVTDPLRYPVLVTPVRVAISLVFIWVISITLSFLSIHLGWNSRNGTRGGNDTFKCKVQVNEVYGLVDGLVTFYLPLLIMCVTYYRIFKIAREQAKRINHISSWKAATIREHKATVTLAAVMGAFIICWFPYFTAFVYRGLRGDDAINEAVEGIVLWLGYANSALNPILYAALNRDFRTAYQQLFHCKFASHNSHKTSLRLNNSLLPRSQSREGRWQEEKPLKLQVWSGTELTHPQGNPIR
T1 sequence (P47747 whole entry): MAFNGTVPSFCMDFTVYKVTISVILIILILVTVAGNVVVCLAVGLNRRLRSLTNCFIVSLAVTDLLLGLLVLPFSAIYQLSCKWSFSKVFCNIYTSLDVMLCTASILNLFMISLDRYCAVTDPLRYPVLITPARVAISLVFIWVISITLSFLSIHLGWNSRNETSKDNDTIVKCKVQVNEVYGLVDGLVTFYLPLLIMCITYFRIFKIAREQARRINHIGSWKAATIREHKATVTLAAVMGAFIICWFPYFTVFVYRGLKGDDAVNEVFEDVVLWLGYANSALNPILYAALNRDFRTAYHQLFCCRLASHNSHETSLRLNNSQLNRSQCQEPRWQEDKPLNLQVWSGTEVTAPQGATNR

| SMILES | EC50 (histamine H2 -receptors [1]) [µM] | ED50 (histamine H2 -receptors [2]) [mg/kg] | No. Dead/No. Treated Mice (Swiss mice) | H2 -receptor antagonist potency relative to cimetidine (H2 -receptor) | inhibition of gastric acid secretion relative to cimetidine (gastric acid secretion) | effect on gastric acid secretion (gastric acid secretion; literature (Black et al.)) |
| --- | --- | --- | --- | --- | --- | --- |
| CCNC=Nc1cccc(-c2csc(NC(=N)N)n2)c1 [14(a), N-Ethyl-N'-[3-(2-guanidino-4-thiazolyl)phenyl]-formamidine] | 0.53 | 0.013 | 0/5 | – | – | – |
| C=CCNC=Nc1cccc(-c2csc(NC(=N)N)n2)c1 [14(j), N-Allyl-N'-[3-(2-guanidino-4-thiazolyl)-phenyl]-formamidine] | 0.33 | 0.02 | 0/5 | – | – | – |
| CNC(=C[N+](=O)[O-])NCCSCc1ccc(CN(C)C)o1 [ranitidine] | – | – | – | more potent than cimetidine | more potent than cimetidine | – |
| CCCNC=Nc1cccc(-c2csc(NC(=N)N)n2)c1 [14(b), N-Propyl-N'-[3-(2-guanidino-4-thiazolyl)-phenyl]-formamidine] | 0.28 | 0.019 | 0/5 | – | – | – |
| CC(C)CNC=Nc1cccc(-c2csc(NC(=N)N)n2)c1 [14(f), N-Isobutyl-N'-[3-(2-guanidino-4-thiazolyl)-phenyl]-formamidine] | 1.2 | 0.082 | 0/5 | – | – | – |
| CCNC=Nc1cccc(-c2nsc(NC(=N)N)n2)c1 [14(ap), N-Ethyl-N'-[3-(5-guanidino-1,2,4-thiadiazol-3-yl)-phenyl]-formamidine] | 0.45 | 0.051 | 0/5 | – | – | – |
| CN/C=N/c1cccc(-c2csc(N=C(N)N)n2)c1 [Example 14, N-Methyl-N'-[3-(2-guanidino-4-thiazolyl)-phenyl]-formamidine] | 0.33 | 0.02 | 0/5 | – | – | – |
| COCCNC=Nc1cccc(-c2csc(NC(=N)N)n2)c1 [14(p), N-(2-Methoxy-ethyl)-N'-[3-(2-guanidino-4-thiazolyl)-phenyl]-formamidine] | 0.48 | 0.05 | 0/5 | – | – | – |
| CCCCNC=Nc1cccc(-c2csc(N=C(N)N)n2)c1 [14(d), N-Butyl-N'-[3-(2-quanidino-4-thiazolyl)-phenyl]-formamidine] | 0.55 | 0.073 | 4/5 | – | – | – |
| CC(C)NC=Nc1cccc(-c2csc(NC(=N)N)n2)c1 [14(c), N-Isopropyl-N'-[3-(2-guanidino-4-thiazolyl)-phenyl]-formamidine] | 0.2 | 0.035 | 1/5 | – | – | – |
| N=C(N)Nc1nc(-c2cccc(N=CNCCCO)c2)cs1 [14(s), N-(3-Hydroxy-propyl)-N'-[3-(2-guanidino-4-thiazolyl)-phenyl]-formamidine] | 0.27 | 0.028 | 0/5 | – | – | – |
| COc1ccc(CN(CCN(C)C)c2ccccn2)cc1 [mepyramine] | – | – | – | – | – | no effect on gastric acid secretion |
| CNC(=NCCSCc1csc(N=C(N)N)n1)NC#N [tiotidine] | – | – | – | more potent than cimetidine | more potent than cimetidine | – |
| CCC(C)NC=Nc1cccc(-c2csc(NC(=N)N)n2)c1 (centres unmarked) [14(e), N-sec.Butyl-N'-[3-(2-guanidino-4-thiazolyl)-phenyl]-formamidine] | 0.3 | 0.041 | 0/5 | – | – | – |
| C#CCNC=Nc1cccc(-c2csc(NC(=N)N)n2)c1 [14(l), N-Propargyl-N'-[3-(2-guanidino-4-thiazolyl)-phenyl]-formamidine] | 3.1 | 0.074 | 0/5 | – | – | – |
